The record followed here is patent publication US8329902B2, “Optically pure dihydropyrimidine compounds and their uses for the preparation of a medicament for treatment and prevention of viral diseases” (Beijing Molecule Science And Technology Co., Ltd., priority 2006, dated 2012).

pIC50: −log10 of the molar value. Where only a bound is given, the exact number is not on record here.

One may read the pIC50 as −log10 of the IC50, conventionally taken in molar units. Low readings indicate a large IC50, high ones a small IC50. As a reminder, the melting point is the temperature, or range, at which the solid turns liquid.

One series has as its system HBV DNA. In words: Antiviral activity: inhibition of HBV DNA in supernatant of HepG 2.2.15 cells (dot blot hybridization). It is filed as cell-based. The conditions noted are these: Hepatitis B virus, HepG2.2.15, 192 h, 8 days incubation, 50% reduction of type B hepatitis-specific DNA band. On the procedure: The antiviral effection of the compound of the present invention is determined according to the methods described by Sells, et al in (M. A. Sells M. L. Chen G. Proc. Natl. Acad. Sci. 1987, 84, 1005-1009) and Korba, et al (B. E. Korba, J. L. Gerin Antiviral Research 1992, 19, 55-70).
(§1) The antiviral test was carried out in a 96-cell microtiter plate. The first column of the plate only contained a culture medium for growth and HepG 2.2.15 cells, as a control. First, a stock solution (50 mmol) of a test compound was dissolved in DMSO, and further diluted with a culture medium for growth for HepG 2.2.15 cells. Usually, the compound of the present invention was transferred by suction at a test concentration of 100 μg/ml (the first test concentration) to each cell of the second column of the microtiter plate, and then diluted with the culture medium for growth plus 2% fetal bovine serum (25 μL), by 2 times once, up to […] at the maximum.
(§2) Then, 225 μL of a suspension of HepG 2.2.15 cells (5×10^4 cells/ml) in the culture medium fro growth plus 2% fetal bovine serum was added to each pore of the 96-cell microtiter plate.
(§3) The test mixture was incubated under the conditions of 37° C., 5% CO2 for 4 days. Then, the supernatant was removed by suction, and to each pore 225 μL of a new-prepared culture medium was added. Again, the compound of the present invention was added by a solution of 25 μL. The obtained mixture was further incubated for 4 days.
Thereafter, the supernatant was collected, and sucked in vacuum to a 96-cell dot blot chamber covered by nylon film (used in accordance with the directions for use given by the manufacturer).
After the supernatant was transferred onto the nylon film of the dot blot device (as described above), the supernatant of HepG 2.2.15 cells was denaturated (1.5 M NaCl/0.5 M NaOH), neutralized (3 M NaCl/0.5 M Tris. HCl, pH 7.5) and washed (2×SSC). Then, the filter film was kept at 120° C. for 2-4 hours, whereby DNA was baked on the filter film.
Usually, viral DNA of HepG 2.2.15 cells treated on the nylon filter film was detected by using a non-radioactive digoxigenin labelled type B hepatitis-specific DNA probe. Wherein, each time the probe was labelled with digoxigenin, purified and hybridized according to the directions for use given by the manufacturer.
Briefly, pre-hybridization and hybridization were conducted with 5×SSC, 1× blocking agent, 0.1% N-lauroyl sarcosine, 0.02% SDS and 100 μg sperm DNA of black carp. After pre-hybridization at 60° C. for 30 min, a specific hybridization (at 60° C. for 14 hr) was conducted with 20-40 ng/ml digoxigenin labelled denaturated I-BV specific DNA. Then, the filter film was washed, followed by digoxigenin antibody detection for HBV DNA. […]

For a further series, the system named is HepG 2.2.15 cells. Description: Cytotoxicity in HepG 2.2.15 cells (cell morphology by microscope after 8 days, Reed & Muench). It is filed as cell-based. Conditions: pathological change of cells after 8 days. As to the method:
as §1, §2, §3
Prior to collection of the supernatant for determination of the antiviral effect, the cytotoxicity variation of HepG 2.2.15 cells was investigated by using optical microscopic technique or biochemical test method (e.g., Alamar Blue dyeing or Trypan Blue dyeing).
The substance-induced change in cytotoxicity in HepG 2.2.15 cells or change in inhibition of the cells could be determined by using, e.g., optical microscopic technique, and expressed by the change of cell morphology. Such substance-induced change, e.g., cell lysis, vacuolus formation or change in cell morphology, in HepG 2.2.15 cells was apparent as compared with the untreated cells. Taking the observed pathological change of cells as index, the pathological change of cells was observed under microscope after 8 days, a complete destroy being indicated as 4; 75% being indicated as 3; 50% being indicated as 2; 25% being indicated as 1; and no pathological change being indicated as 0. The average extents of pathological change of cells and the suppression percentages at various concentrations were calculated. According to Reed & Muench method, a half toxic concentration (TC50) and a maximum non-toxic concentration (TC0) were calculated.
TC50 refers to the concentration of the compound of the present invention when 50% of cells have a similar morphology to the corresponding cells as a control.

With `CC1=C(C(=O)OCC(F)(F)F)[C@H](c2ccc(F)cc2Cl)N=C(c2nccs2)N1` [Example 3, (R)-4-(2-chloro-4-fluorophenyl)-6-methyl-2-(2-thiazolyl)-1,4-dihydropyrimidin-5-trifluoroethylcarboxylate], the pIC50 with HBV DNA is 5.29. Further, the TD50 with HepG 2.2.15 cells came out at 37.4 µM.

`CC1=C(C(=O)N[C@H](C)c2ccccc2)[C@H](c2ccc(F)cc2Cl)N=C(c2nccs2)N1`: the melting point lay within 224 to 226 °C.

The compound `CCOC(=O)C1=C(C)NC(c2nccs2)=N[C@H]1c1ccc(F)cc1Cl` [Example 2, (R)-4-(2-chloro-4-fluorophenyl)-6-methyl-2-(2-thiazolyl)-1,4-dihydropyrimidin-5-ethylcarboxylate] showed a pIC50 in the series on HBV DNA of more than 6.10. The same compound had a TD50 in the series on HepG 2.2.15 cells of more than 62.9 µM.

For `CCOC(=O)C1=C(C)NC(c2c(F)cc(F)cc2F)=N[C@H]1c1ccc(F)cc1Cl` [Example 5, (R)-4-(2-chloro-4-fluorophenyl)-6-methyl-2-(2,4,6-trifluorophenyl)-1,4-dihydropyrimidin-5-ethylcarboxylate], the melting point was 162 to 165 °C. Besides, the pIC50 with HBV DNA is 5.89. In the series with HepG 2.2.15 cells, this compound gave a TD50 of 13.8 µM.

`CCOC(=O)C1=C(C)NC(c2cncs2)=N[C@H]1c1ccc(F)cc1Cl` [Example 7, (R)-4-(2-chloro-4-fluorophenyl)-6-methyl-2-(5-thiazolyl)-1,4-dihydropyrimidin-5-ethylcarboxylate] showed a pIC50 in the series with HBV DNA of 5.74. Also, the TD50 with HepG 2.2.15 cells is more than 12.5 µM.
